Laboratory results from paper PMC8264504, “Identification of Koumine as a Translocator Protein 18 kDa Positive Allosteric Modulator for the Treatment of Inflammatory and Neuropathic Pain” (Frontiers in Pharmacology, 2021).

Experiments:
TSPO = molecular target: TSPO; set-up: method as in Awad and Gavish, 1987; Verma et al., 1987; conditions: radioligand binding experiment results from literatures, ref Awad and Gavish, 1987, Verma et al.; cited from earlier work
[1] = molecular target: T1, TSPO from rat cerebral cortex (Rattus norvegicus, UniProt P16257); experiment: 3H-PK11195 equilibrium binding in presence of koumine
T1 construct: from tissue; host or cells: rat (SD) cerebral cortex, crude mitochondrial/membrane pellet
Protocol: (§1) Briefly, male SD rats (240 ± 10 g) were killed by decapitation, and the cerebral cortices were dissected. The tissues were homogenized in 10 volumes (ml/g) of 50 mM Tris HCl buffer containing 0.32 M sucrose (pH 7.4). The homogenates were centrifuged at 1,000 g for 10 min at 4°C. The resulting pellets were discarded, and the supernatants were centrifuged at 9,000 g for 15 min. The pellets were resuspended in 10 volumes of Tris HCl buffer containing 0.32 M sucrose (pH 7.4) and centrifuged at 13,000 g for 30 min, then resuspended in 10 volumes of Tris HCl buffer and centrifuged again at 13,000 g for 30 min. The final pellets were suspended in Tris HCl buffer and used in the binding assays. Protein concentrations were measured using the BCA Protein Assay Kit (ThermoFisher Scientific) according to the manufacturer’s instructions.
After incubation at 4°C for 2 h, the reaction was terminated by the addition of ice-cold 50 mM Tris HCl buffer (pH 7.4) followed by vacuum filtration through Filtermat A glass microfiber filters (pretreated with 0.2% polyethylenimine) using a Brandel cell harvester. The filters were washed rapidly, and radioactivity was determined by liquid scintillation spectrometry.

[2] = molecular target: T1, TSPO from rat cerebral cortex; experiment: 3H-PK11195 dissociation kinetics; format: binding
Protocol: as §1
Then, samples were filtered through Filtermat A glass microfiber filters (pretreated with 0.2% polyethylenimine) using a Brandel cell harvester, and the radioactivities were measured at the indicated time points.

[3] = system: TSPO from the rat cerebral cortex; set-up: method as in Jin, 2014; conditions: previous competitive binding assay; ref Jin, 2014; cited from earlier work

T1 sequence (P16257 whole entry): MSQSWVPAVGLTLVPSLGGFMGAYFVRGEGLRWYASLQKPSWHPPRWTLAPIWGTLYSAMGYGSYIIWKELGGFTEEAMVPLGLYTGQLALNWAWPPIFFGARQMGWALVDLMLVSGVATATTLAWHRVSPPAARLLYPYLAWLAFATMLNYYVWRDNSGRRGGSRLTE

SMILES | Kd (TSPO) [nM] | effect on binding of 0.1 nM 3H-PK11195 ([1]; 10^−10 M and 10^−6 M koumine only) | effect on binding of 0.1 nM 3H-PK11195 ([1]; all concentrations of koumine, 10^−12–10^−3 M, not dose dependent) | dissociation rate of 3H-PK11195 relative to vehicle group ([2]; in presence of 10^−6 M koumine) [%] | dissociation rate of 3H-PK11195 relative to vehicle group ([2]; in presence of 10^−10 M koumine) [%] | effect on binding of 3H-PK11195 with TSPO [3]
CN1C(=O)CN=C(c2ccc(Cl)cc2)c2cc(Cl)ccc21 [Ro5-4864, reference compound] | 7.3 ± 0.8 |  |  |  |  | 
C=C[C@@]12CN(C)[C@H]3C[C@]14C(=Nc1ccccc14)[C@H]1C[C@@H]2[C@@H]3CO1 [koumine] |  | significantly increased the binding | tended to increase the binding | 72 | 81 | significantly increased the binding
